# According to US20080051378A1, “Combinations Comprising Antimuscarinic Agents and Corticosteroids” (priority 2004, published 2008):
# System: ovoalbumin-sensitized guinea-pig isolated tracheal rings
# Assay: Inhibition of the antigen (ovoalbumin)-induced contraction in ovoalbumin-sensitized guinea-pig isolated tracheal rings
# Settings: for CONTRACTILE RESPONSE TO OVOALBUMIN (in mg) (mean ± sem): vehicle 886 ± 108 mg
# Experimental: Male Dunkin-Hartley guinea-pigs (weighing 380-420 g) from Harlan Ibérica (St. Feliu de Codines, Spain) are used. They are housed, with free access to food and water, in rooms kept at 22±2° C. under a 12 hours light-dark cycle until the start of the experiment.
# The animals are sensitised by means of two sessions of aerosolization with a solution of 5 mg/ml of ovoalbumin on days zero and 7 of the study. The aerosolization procedure consists of two 30-s nebulisations (Efbe air brush apparatus) with an interval of 5 minutes with animals maintained in a plexiglass box for 10 minutes since the beginning of the procedure.
# Between days 14 to 20 from the beginning of the experiment the animals are euthanised and the tracheal tissue is removed. A single tracheal ring is excised and suspended in an organ bath containing Krebs solution. Once attached to a force isometric transducer, it is submitted to a basal resting tension of 1 g, equilibrated with a mixture a 5% CO2 in O2 and maintained at 37° C.
# The preparations are allowed to equilibrate for a period of not less than 60 minutes and then the vehicle or the compound(s) to be tested are added to the bath. The corticosteroids (if present) are added first, and, after an incubation period of 45 minutes, the M3 antagonist are subsequently added allowing the system to stand for another 15 minutes. At this moment ovoalbumin is added (at a final concentration in the bath of 10 μg/ml) to elicit the contractile response which is measured immediately.
# The contractile responses measured with a force isometric transducer are expressed in mg.
# [1] = each compound 10 μM in organ bath, corticosteroid added 45 min before, M3 antagonist 15 min before ovoalbumin 10 μg/ml
SMILES,CONTRACTILE RESPONSE TO OVOALBUMIN (in mg) (mean ± sem) [1] [mg],"% INHIBITION OF THE CONTRACTILE RESPONSE (each compound 10 μM in organ bath, corticosteroid added 45 min before, M3 antagonist 15 min before ovoalbumin 10 μg/ml, versus vehicle) [%]","inhibition of the contractile response, comparison in words (text summary of Table 1 and FIG. 1, 10 μM each)","inhibition at 10 µM (Cavia porcellus, each compound 10 μM in organ bath, corticosteroid added 45 min before, M3 antagonist 15 min before ovoalbumin 10 μg/ml, versus vehicle, read-out: % INHIBITION OF THE CONTRACTILE RESPONSE) [%]"
"C[C@H]1C[C@H]2[C@@H]3CCC4=CC(=O)C=C[C@]4(C)[C@@]3(Cl)[C@@H](O)C[C@]2(C)[C@@]1(O)C(=O)CO [BECLOMETHASONE, beclomethasone]",778 ± 83,12,smaller effect,
"CCCC1O[C@@H]2C[C@H]3[C@@H]4CCC5=CC(=O)C=C[C@]5(C)[C@H]4[C@@H](O)C[C@]3(C)[C@]2(C(=O)CO)O1 (some centres unmarked) [BUDESONIDE, budesonide]",435 ± 68,,,51
